{
  "source": "patent US9440980B2",
  "about": "“Remedy for diabetes” (EA Pharma Co., Ltd., priority 2007, dated 2016)",
  "key": {"[1]": {"target": "T1, binding between the Gβ and the p110β (PI3-kinase β) (Homo sapiens, UniProt P42338+P62873)", "T1 construct": "purchased Upstate 14-603", "T1 sequence (P42338 whole entry)": "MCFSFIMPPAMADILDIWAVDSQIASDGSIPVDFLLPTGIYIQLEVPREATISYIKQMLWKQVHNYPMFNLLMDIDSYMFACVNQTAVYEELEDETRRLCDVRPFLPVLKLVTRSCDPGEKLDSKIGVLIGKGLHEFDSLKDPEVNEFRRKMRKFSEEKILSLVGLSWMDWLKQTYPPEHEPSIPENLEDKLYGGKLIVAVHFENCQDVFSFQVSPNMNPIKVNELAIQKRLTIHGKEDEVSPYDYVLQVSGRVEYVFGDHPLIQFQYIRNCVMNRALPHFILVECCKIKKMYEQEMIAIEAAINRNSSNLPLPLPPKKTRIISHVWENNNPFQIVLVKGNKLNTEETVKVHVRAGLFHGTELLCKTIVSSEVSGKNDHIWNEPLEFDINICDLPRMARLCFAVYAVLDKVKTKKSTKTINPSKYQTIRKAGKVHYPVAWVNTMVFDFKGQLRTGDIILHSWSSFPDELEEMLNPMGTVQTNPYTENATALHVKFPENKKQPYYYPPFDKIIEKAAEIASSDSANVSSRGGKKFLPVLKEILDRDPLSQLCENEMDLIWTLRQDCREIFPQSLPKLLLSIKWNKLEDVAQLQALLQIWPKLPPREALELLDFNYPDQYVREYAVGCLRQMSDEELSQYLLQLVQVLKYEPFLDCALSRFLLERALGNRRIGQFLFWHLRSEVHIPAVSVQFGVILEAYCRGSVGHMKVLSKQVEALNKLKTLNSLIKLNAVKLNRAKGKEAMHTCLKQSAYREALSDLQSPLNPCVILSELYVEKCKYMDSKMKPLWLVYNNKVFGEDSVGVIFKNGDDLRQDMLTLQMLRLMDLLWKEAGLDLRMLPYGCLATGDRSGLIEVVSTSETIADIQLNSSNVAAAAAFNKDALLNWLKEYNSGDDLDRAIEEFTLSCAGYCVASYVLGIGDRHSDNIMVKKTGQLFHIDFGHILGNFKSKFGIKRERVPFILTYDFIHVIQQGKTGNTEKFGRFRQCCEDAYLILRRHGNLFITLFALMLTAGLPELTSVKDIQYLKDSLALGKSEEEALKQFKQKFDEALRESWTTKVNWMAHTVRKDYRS", "T1 sequence (P27986 whole entry partner)": "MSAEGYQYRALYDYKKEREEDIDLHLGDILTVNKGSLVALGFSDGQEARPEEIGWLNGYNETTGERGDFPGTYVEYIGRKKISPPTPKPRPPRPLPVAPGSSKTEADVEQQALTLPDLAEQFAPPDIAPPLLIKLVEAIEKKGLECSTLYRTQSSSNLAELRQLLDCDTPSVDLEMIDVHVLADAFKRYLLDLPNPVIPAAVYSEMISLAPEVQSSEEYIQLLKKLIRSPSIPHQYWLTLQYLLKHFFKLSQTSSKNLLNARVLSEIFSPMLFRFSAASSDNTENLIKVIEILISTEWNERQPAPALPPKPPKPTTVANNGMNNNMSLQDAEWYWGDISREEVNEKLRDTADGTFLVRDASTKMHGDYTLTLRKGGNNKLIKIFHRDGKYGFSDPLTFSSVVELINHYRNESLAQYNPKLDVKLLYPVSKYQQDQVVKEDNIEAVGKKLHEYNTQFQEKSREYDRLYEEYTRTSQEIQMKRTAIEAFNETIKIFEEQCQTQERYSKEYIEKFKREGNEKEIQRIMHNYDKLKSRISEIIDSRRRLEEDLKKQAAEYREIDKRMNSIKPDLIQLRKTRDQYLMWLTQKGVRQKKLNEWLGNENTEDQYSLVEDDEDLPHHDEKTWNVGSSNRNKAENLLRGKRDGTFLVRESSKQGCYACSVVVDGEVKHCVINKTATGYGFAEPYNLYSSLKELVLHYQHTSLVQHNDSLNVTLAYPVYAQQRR", "T1 sequence (P62873 whole entry)": "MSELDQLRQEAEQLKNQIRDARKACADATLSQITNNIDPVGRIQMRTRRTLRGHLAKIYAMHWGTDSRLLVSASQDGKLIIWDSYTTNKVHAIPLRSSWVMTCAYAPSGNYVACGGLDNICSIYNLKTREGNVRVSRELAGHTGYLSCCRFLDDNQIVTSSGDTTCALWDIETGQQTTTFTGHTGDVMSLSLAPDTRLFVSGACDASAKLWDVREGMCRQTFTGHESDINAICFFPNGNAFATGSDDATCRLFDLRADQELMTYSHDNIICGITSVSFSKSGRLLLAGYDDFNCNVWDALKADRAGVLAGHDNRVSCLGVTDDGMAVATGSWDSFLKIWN", "T1 sequence (P59768 with tags, fused parts or gaps partner limits assumed)": "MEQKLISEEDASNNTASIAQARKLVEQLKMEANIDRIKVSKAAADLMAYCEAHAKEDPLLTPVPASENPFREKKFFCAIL", "assay": "Binding of Gβ1γ2-Myc to PI3-kinase β (immunoprecipitation, Western blot)", "settings": "Compound 1 (0.1 μM) and Compound 6 (1 mM) approximately the same effect; FIG. 15", "experimental": "300 μl of a PI3K buffer (40 mM HEPES-Na (pH 7.4), 120 mM NaCl, 1 mM EGTA, 1 mM dithiothreitol, 1 mM β glycerophosphoric acid, 10 mM MgCl2, 0.1% BSA) was added to a 1.5-ml microtube, and to this were added 200 ng of the Gβ1γ2-Myc obtained in Example 20 (1), 160 ng of PI3-kinase β (PI3 Kinase (p110β/p85α), active, Upstate, Product No. 14-603), and a test substance. The mixture was left at room temperature for 30 minutes, to this was added 10 μl of a solution of an anti-cMyc antibody (9E10, 200 μg/ml, SantaCruz, Product No. sc-40), and the resulting mixture was left at room temperature for 2 hours. To the solution was added 25 μl of anti-mouse IgG agarose beads (American Qualex, Product No. 61060) which were washed with the same buffer, stirred at room temperature for 1 hour and centrifuged (10000 rpm, 1 minute) to remove the supernatant. Furthermore, the beads were washed with 0.5 ml of the buffer 3 times, eluted in a boiling SDS-containing buffer, and subjected to an SDS polyacrylamide electrophoresis. Then, the amounts of the p110β and the Gβ adsorbed to the beads were measured by a Western blot method using an anti-p110β antibody (SantaCruz, Product No. sc-602) and an anti-Gβ antibody (SantaCruz, Product No. sc-261)."}, "[2]": {"test_system": "PI3-kinase α (p110α/p85α)", "assay": "PI3-kinase subtype activity in the presence of Gβ1γ2-Myc (PIP3 production, 32P-ATP, TLC)", "assay_type": "biochemical", "settings": "30 μM, FIG. 13", "procedure": "The subtypes α (PI3 Kinase (p110α/p85α), active, Upstate, Product No. 14-602), β (PI3 Kinase (p110β/p85α), active, Upstate, Product No. 14-603), γ ((PI3KγHis-GST (Phosphoinositide 3-kinase p110γHis/p101GST) human, Recombinant, Sf9 insect cell, JENA Bioscience, Product No. PR-347S), and δ (PI3 Kinase (p110δ/p85α), active, Upstate, Product No. 14-604) were used as the PI3-kinase subtypes respectively. A PI3K buffer (40 mM HEPES-Na (pH 7.4), 120 mM NaCl, 1 mM EGTA, 1 mM dithiothreitol, 1 mM β glycerophosphoric acid, 10 mM MgCl2, 0.1% BSA) was used as a buffer in the following reactions.\nA mixture liquid of phosphatidylethanolamine (0.256 μmol), phosphatidylserine (0.24 μmol), phosphatidylcholine (0.112 μmol), sphingomyelin (0.024 μmol), and phosphatidylinositol-[4,5]-bisphosphate (0.032 μmol) was added to a glass tube and dried by argon gas, and to this was added the PI3K buffer (0.27 ml) at ice temperature. This solution was ultrasonic-treated in ice to prepare a lipid micelle solution. […] The data were analyzed by a software of BAS2000, the analysis region was controlled such that spots of phosphatidylinositol-[3,4,5]-trisphosphate (PIP3) in the TLC lanes have the same areas, and the energy (PSL) corresponding to each radioactivity was quantified in the region."}, "[3]": {"test_system": "Akt phosphorylation in human liver-derived HLF cell", "assay": "Akt phosphorylation activity in Gβ expression inhibited HLF cell (siRNA, Western blot)", "assay_type": "cell-based", "settings": "FIG. 16", "experimental": "The effect of Gβ expression inhibition by a siRNA method against the Akt phosphorylation activity of Compound 6 in a human liver-derived HLF cell was evaluated as follows.\nThe HLF cells were seeded in a Dulbecco MEM medium containing 10% FCS in a 24-well dish (IWAKI, Product No. 3820-024) at a ratio of 3.75×10^4 cells/well. The cells were cultured at 37° C. for 6 hours in the presence of 5% CO2 to achieve sufficient attachment, a siRNA was transfected into the cells at the concentration of 100 nM using Dharmafect 2 (Dharmacon, Product No. T-2002-02), and the resultant cells were cultured at 37° C. for 48 hours in the presence of 5% CO2. […] Each solution was subjected to an SDS polyacrylamide electrophoresis, and the phosphorylated Akt amount, the Gβ1 amount, the Gβ2 amount, and the Gβ4 amount were measured by a Western blot method using an anti-phosphorylated Akt antibody (Cell Signaling Technologies, Product No. 9271), an anti-Gβ1 antibody (SantaCruz, Product No. sc-379), an anti-Gβ2 antibody (SantaCruz, Product No. sc-380), and an anti-Gβ4 antibody (SantaCruz, Product No. sc-382). […]"}},
  "data": [
    {"smiles": "O=C1NCC2=C1[C@@H](c1cccc3ccsc13)N(C(=O)CCc1ccccn1)[C@@H]1CCCC[C@H]1N2", "note": "[Compound 1]", "values": [
      {"measurement": "effect on the binding between the Gβ and the p110β (PI3-kinase β)", "setting": "[1]", "value": "enhanced"},
      {"measurement": "effect on PI3-kinase α activity", "setting": "[2]", "value": "only on the PI3-kinase β"}
    ]},
    {"smiles": "O=C1NCC2=C1[C@@H](c1ccccc1)N(C(=O)CO)[C@@H]1CCCC[C@H]1N2", "note": "[Compound 6]", "values": [
      {"measurement": "effect on the binding between the Gβ and the p110β (PI3-kinase β)", "setting": "[1]", "value": "enhanced"},
      {"measurement": "phosphorylated Akt amount", "setting": "[3]; HLF cells with Gβ siRNA (Gβ1, Gβ2, Gβ4)", "value": "not detected at any Compound 6 concentration"},
      {"measurement": "phosphorylated Akt amount", "setting": "[3]; HLF cells with negative control siRNA", "value": "increased depending on the Compound 6 concentration"}
    ]}
  ]
}
